{"source": "patent US20180245061A1", "about": "“Modified Heterocyclase” (THE UNIVERSITY COURT OF THE UNIVERSITY OF ABERDEEN, priority 2014, published 2018)", "parameters_in_all_cases": "species or system Lyngbya sp. PCC 8106", "key": {"[1]": {"biological_target": "Lyngbya sp. LynD heterocyclase (SEQ ID NO: 1) variant R636E", "experiment": "ITC nucleotide binding (ATP/AMP) to LynD R636E", "details": "25° C., pH 7.4, 5 mM MgCl2", "protocol": "(§1) Codon optimized full-length LynD (Lyngbya sp. PCC 8106) with an N-terminal TEV protease-cleavable His6-tag was purchased from DNA2.0 in the pJexpress411 plasmid. The protein was expressed in Escherichia coli BL21 (DE3) grown on auto-induction medium {Studier, 2005, Protein expression and purification, 41, 207-234} for 48 h at 20° C. Cells were harvested by centrifugation at 4,000×g, 4° C. for 15 min and re-suspended in lysis buffer (500 mM NaCl, 20 mM Tris pH 8.0, 20 mM imidazole and 3 mM β-mercaptoethanol (BME)) with the addition of complete EDTA-free protease inhibitor tablets (Roche) and 0.4 mg DNase g^−1 wet cells (Sigma). Cells were lysed by passage through a cell disruptor at 30 kPSI (Constant Systems Ltd) and the lysate was cleared by centrifugation at 40,000×g, 4° C. for 20 min. The cleared lysate was applied to a Nickel Sepharose 6 Fast Flow (GE Healthcare) column pre-washed with lysis buffer and protein eluted with 250 mM imidazole. The protein was then passed over a desalting column (Desalt 16/10, GE Healthcare) in 100 mM NaCl, 20 mM Tris pH 8.0, 20 mM imidazole, 3 mM BME. Tobacco etch virus (TEV) protease was added to the protein at a mass-to-mass ratio of 1:10 and the protein digested for 2 h at 20° C. to remove the Hiss-tag. However, removal of the Hiss-tag was not essential for activity and so less vigorous methods for purification may also be used. […]"}, "[2]": {"biological_target": "Lyngbya sp. LynD heterocyclase (SEQ ID NO: 1) variant R636A", "experiment": "ITC nucleotide binding (AMP) to LynD R636A", "details": "25° C., pH 7.4, 5 mM MgCl2", "protocol": "as §1"}, "[3]": {"biological_target": "Lyngbya sp. LynD heterocyclase (SEQ ID NO: 1) variant K409A", "experiment": "ITC nucleotide binding (ATP/AMP) to LynD K409A", "details": "25° C., pH 7.4, 5 mM MgCl2", "protocol": "as §1"}, "[4]": {"biological_target": "Lyngbya sp. LynD heterocyclase (SEQ ID NO: 1) variant K409E", "experiment": "ITC nucleotide binding (ATP/AMP) to LynD K409E", "details": "25° C., pH 7.4, 5 mM MgCl2", "protocol": "as §1"}, "[5]": {"biological_target": "Lyngbya sp. LynD heterocyclase (SEQ ID NO: 1) variant E423R", "experiment": "ITC nucleotide binding (ATP/AMP) to LynD E423R", "details": "25° C., pH 7.4, 5 mM MgCl2", "protocol": "as §1"}, "[6]": {"biological_target": "Lyngbya sp. LynD heterocyclase (SEQ ID NO: 1) variant R427E", "experiment": "ITC nucleotide binding (ATP/AMP) to LynD R427E", "details": "25° C., pH 7.4, 5 mM MgCl2", "protocol": "as §1"}, "[7]": {"biological_target": "Lyngbya sp. LynD heterocyclase, wild type, SEQ ID NO: 1", "experiment": "ITC nucleotide binding (ATP/AMP) to LynD", "details": "25° C., pH 7.4, 5 mM MgCl2, one-site model, stoichiometry set to 1, read-out: Nucleotide KD (AMP)", "protocol": "as §1"}}}
{"compound": "Nc1ncnc2c1ncn2[C@@H]1O[C@H](COP(=O)(O)O)[C@@H](O)[C@H]1O", "note": "[AMP]", "values": [{"measurement": "Nucleotide KD (AMP)", "setting": "[1]", "value": "no binding"}, {"measurement": "Nucleotide KD (AMP)", "setting": "[2]", "value": "no binding"}, {"measurement": "Nucleotide KD (AMP)", "setting": "[3]", "value": "no binding"}, {"measurement": "Nucleotide KD (AMP)", "setting": "[4]", "value": "no binding"}, {"measurement": "Kd", "setting": "[5]", "value": 5.65, "unit": "µM"}, {"measurement": "Kd", "setting": "[6]", "value": 23, "unit": "µM"}, {"measurement": "Kd", "setting": "[7]", "value": 14.4, "unit": "µM"}]}
